# Columns and labels:
# Assay in all cases: selective drug sensitivity score (sDSS, relative to normal bone marrow) (sDSS (score)); higher = more potent and effective on the cell line relative to normal bone marrow cells
# Details in all cases: 72 h
# [1] = system: LC4-1
# [2] = system: MN-60
# [3] = system: DND-41
# [4] = system: NALM-6
# [5] = system: SEM cells
# [6] = system: HPB-ALL
# [7] = system: MHH-CALL-4
# [8] = system: SUP-B15
# [9] = system: COG-LL-332h
# [10] = system: TANOUE
# [11] = system: CCRF-HSB2
# [12] = system: COG-LL-319h
# [13] = system: CCRF-CEM
# [14] = system: KASUMI-10
# [15] = system: MOLT-14
# [16] = system: NALL-1
# [17] = system: NALM-16
# [18] = system: REH
# [19] = system: KASUMI-2
# [20] = system: MOLT-16
# 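Also: ALL cell lines in 384-well plates, five doses spanning 10,000-fold, each plate scaled between vehicle and 100 µmol/L benzalkonium chloride controls, sDSS an adapted area-under-curve metric.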
Compound,selective drug sensitivity score [1],selective drug sensitivity score [2],selective drug sensitivity score [3],selective drug sensitivity score [4],selective drug sensitivity score [5],selective drug sensitivity score [6],selective drug sensitivity score [7],selective drug sensitivity score [8],selective drug sensitivity score [9],selective drug sensitivity score [10],selective drug sensitivity score [11],selective drug sensitivity score [12],selective drug sensitivity score [13],selective drug sensitivity score [14],selective drug sensitivity score [15],selective drug sensitivity score [16],selective drug sensitivity score [17],selective drug sensitivity score [18],selective drug sensitivity score [19],selective drug sensitivity score [20]
COc1cc2c(NC3CCN(C(C)C)CC3)nc(C3CCCCC3)nc2cc1OCCCN1CCCC1 [UNC0638] (top concentration 10000 nM),-2.84,-2.64,3.36,-3.64,-2.94,-3.44,-3.94,-1.04,0.66,-5.14,0.16,8.26,0.46,-3.34,-0.94,-5.14,-3.04,-0.24,-4.34,-1.04
CC[C@H](CO)Nc1nc(NCc2ccccc2)c2ncn(C(C)C)c2n1 [Seliciclib] (top concentration 10000 nM),1.06,-1.04,9.26,-1.04,-0.04,-0.64,0.16,3.26,2.16,-1.04,0.56,1.66,2.06,0.86,-1.04,-0.74,-1.04,-0.14,-1.04,0.26
O=C1NC(=O)[C@@H](c2cn3c4c(cccc24)CCC3)[C@@H]1c1c[nH]c2ccccc12 [Tivantinib] (top concentration 1000 nM),4.08,3.78,0.78,5.08,7.18,2.88,4.88,2.88,3.48,-1.32,3.58,3.58,3.98,1.98,3.18,4.78,4.28,7.78,0.68,3.48
O=c1ncn2nc(Sc3ccc(F)cc3F)ccc2c1-c1c(Cl)cccc1Cl [Neflamapimod] (top concentration 10000 nM),0.9,1,0.5,0.6,1.5,0.8,0,0.5,0.3,1.4,0.5,0,0,0,0,2.1,0,3.1,0,2.1

# — the supplement of paper PMC8967900
